Columns and labels:
M2 WT = settings: only binding curve recorded; upper limit of the true Kd; cited from earlier work
Udorn M2 WT = Udorn M2 WT (Influenza A virus, UniProt P0DOF5); test: two-electrode voltage clamp electrophysiological; format: binding, influenza A virus A/Udorn/72; settings: amantadine vs rimantadine
Udorn M2 WT, sequence (P0DOF5 whole entry, looked up): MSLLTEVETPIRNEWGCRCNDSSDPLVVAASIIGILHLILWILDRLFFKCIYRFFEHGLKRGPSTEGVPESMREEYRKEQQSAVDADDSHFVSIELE

SMILES: CC(N)C12CC3CC(CC(C3)C1)C2 (racemic) [rimantadine (racemic), rimantadine]
- Kd (M2 WT): 7 µM

SMILES: C[C@H](N)C12CC3CC(CC(C3)C1)C2 [(S)-rimantadine]
- Kd (M2 WT): 3.9 µM

SMILES: NC12CC3CC(CC(C3)C1)C2 [amantadine]
- binding affinity to Udorn M2 WT weaker than rimantadine (Udorn M2 WT): about 10 fold
